Reference: US10590422B2, “Anticancer therapeutic intervention” (PHYZAT BIOPHARMACEUTICALS, LDA., priority 2017, dated 2020)
d = 2'-deoxy (DNA); r = 2'-OH (RNA)

What was measured:
[1] = test system: human colon cancer HTC-116 cells; assay: Cell proliferation assay (calcein-AM) in human colon cancer HTC-116 cells; assay type: cell-based; details: for cell proliferation / proliferation: treatment 6 h; for cell proliferation: 72 h exposure, FIG. 14; for proliferation: at 72 h, 0.17% Lipofectamine 2000 or 0.1% Injectin, FIGS. 19B and 20B
Method: (§1) SK-HEP-1, T24, HT-1080 and HCT-116 cell lines were maintained in a humidified atmosphere of 5% CO2 at 37° C. SK-HEP-1 cells were grown in RPMI-1640 (Sigma, St. Louis, Mo.) supplemented with 20% fetal bovine serum (FBS) (Gibco, UK), 100 U/mL penicillin G, 0.25 μg/mL amphotericin B, 100 μg/mL streptomycin (Gibco, UK), 25 mM sodium bicarbonate (Merck, Germany) and 25 mM N-2-hydroxyethylpiperazine-N′-2-ethanosulfonic acid (HEPES) (Sigma, St. Louis, Mo.). T24 and HT-1080 cells were grown, respectively, in Dulbecco's Modified Eagle's Medium (DMEM)—high glucose (Sigma, St. Louis, Mo.) and DMEM—low glucose (Sigma, St. Louis, Mo.), supplemented with 10% FBS (Gibco, UK), 100 U/mL penicillin G, 0.25 μg/mL amphotericin B, 100 μg/mL streptomycin (Gibco, UK), 25 mM sodium bicarbonate (Merck, Germany) and 25 mM HEPES (Sigma, St. Louis, Mo.). HCT-116 cells were grown in McCoy's 5A (Sigma, St. Louis, Mo.) supplemented with 10% FBS (Gibco, UK), 100 U/mL penicillin G, 0.25 μg/mL amphotericin B, 100 μg/mL streptomycin (Gibco, UK), 25 mM sodium bicarbonate (Merck, Germany) and 25 mM HEPES (Sigma, St. Louis, Mo.). For all cell lines the medium was changed every 2 days, and cells reached confluence 3-4 days after initial seeding. For subculturing, cells were dissociated with 0.25% trypsin-ethylenediaminetetraacetic acid (EDTA) (Sigma, St. Louis, Mo.), split 1:15 or 1:20 and subcultured in a 21-cm^2 growth area (Sarstedt, Germany).
Cell proliferation was measured using calcein-AM (Thermo Fisher Scientific, USA). The membrane permeant calcein-AM, a nonfluorescent dye, is taken up and converted by intracellular esterases to membrane impermeant calcein, which emits green fluorescence. Cells were plated in 96-well plates with black walls clear bottom (BD Biosciences, USA) and incubated 24 h under normal growth conditions. Cells were incubated with test items at 37° C., 5% C02. After the incubation period, serum and antibiotic was restored and cells were further incubated at normal conditions during 72 h. After treatment with test substances or vehicle, cells were washed twice with Hanks' medium and loaded with 2 μM calcein-AM in Hanks' medium, at 37° C. for 30 min. Fluorescence was measured at 485 nm excitation and 530 nm emission wavelengths in a microplate spectrofluorometer (Gemini EM, Molecular Devices). Nine consecutive fluorescence measurements are performed per well, to allow fluorescence readings in the whole area of the well, which was then considered for the calculation of mean fluorescence per well. To determine minimum staining for calcein (calceinmin), eight wells were treated with ethanol 30 min before calcein-AM addition. The percent cell number is calculated as [(calceinsample)/(calceincontrol)]×100.

LAT1 mRNA [2] = assay: LAT1 gene expression (RT-qPCR, relative to GAPDH) after LAT1 gene silencing in SK-HEP-1 cells; assay type: cell-based, human; details: at 24 h; for LAT1 mRNA relative abundance: liver carcinoma SK-HEP-1 cells, 10 nM siRNA, treatment 6 h, Lipofectamine 2000, FIG. 4A
Method: as §1
(§2) Total RNA was isolated and purified using the SV Total RNA Isolation System (Promega, USA) according to manufacturer's instructions. RNA quality and concentration were verified in the NanoDrop ND1000 Spectrophotometer (Thermo Scientific, USA), and RNA integrity and genomic DNA contamination were evaluated by agarose gel electrophoresis. Total RNA (1 μg) was converted into cDNA using the Maxima Scientific First Strand cDNA Synthesis Kit for RT-qPCR (Thermo Scientific, USA), according to instructions. The following protocol was used: 1st step, 10 min at 25° C.; 2nd step, 15 min at 50° C.; 3rd step, 5 min at 85° C. cDNA was used for qPCR analysis using Maxima SYBR Green qPCR Master Mix (Thermo Scientific, USA) in the StepOnePlus instrument (Applied Biosystems, USA). QuantiTect Primer Assay for LAT1 and ASCT2 and for the endogenous control gene GAPDH (Quiagen, Germany) were used. The qPCR reaction was performed in 96-well PCR plates (Sarstedt, Germany) as follows: one cycle of 10 min at 95° C., followed by 40 PCR cycles at 95° C. 15 s and 60° C. 60 s. […] No template controls were always evaluated for each target gene. Quantification cycle (Cq) values were generated automatically by the StepOnePlus 2.3 Software and the ratio of the target gene was expressed in comparison to the endogenous control gene GAPDH.
(§3) Cells were plated in 24-well (Sarstedt, Germany) or 6-well plates (Sarstedt, Germany) or 96-well plates with black walls clear bottom (BD Biosciences, USA) and incubated 24 h under normal growth conditions. siRNAs against LAT1 and transfection agent were diluted at desired concentrations and mixed according to transfection agent manufacturer's instructions. The mixture was incubated 20 min at RT for siRNA-complex formation, after which it was added to the cells and incubated at 37° C., 5% CO2. After the incubation period, serum and antibiotic was restored and cells were further incubated at normal conditions for the desired time points until evaluation of LAT1 activity or LAT1 expression (immunoblotting and RT-qPCR).

LAT1 = LAT1 activity: [^14C]-L-leucine uptake in SK-HEP-1 cells after LAT1 gene silencing; assay type: cell-based, human; details: for inhibiting sodium-independent [^14C]-L-leucine transport: LAT1 siRNA, general statement, conditions not given; for [^14C]-L-leucine (0.25 μM) uptake at initial rate of uptake (1 min): liver carcinoma SK-HEP-1 cells, 10 nM siRNA, treatment 6 h, at 24 h and 48 h, 0.4% Lipofectamine 2000, FIGS. 5A and 5C
Method: Cells were plated in 24-well plates (Sarstedt, Germany) and grown until confluence was reached. On the day of the experiment, cell culture medium was aspirated and cells were preincubated for 15 min in Hanks' medium (NaCl 140 mM, KCl 5 mM, MgSO4.7H2O 0.8 mM, K2HPO4 0.33 mM, KH2PO4 0.44 mM, MgCl2.6H2O 1 mM, CaCl2) 0.025 mM, Tris-HCl 9.75 mM, pH 7.4). Uptake was initiated by addition of Hanks' medium with 0.25 μM [^14C]-L-leucine in the absence and in the presence of 3 mM unlabeled L-leucine. During preincubation and incubation cells were continuously shaken and maintained at 37° C. Uptake was terminated after 1 min by rapid removal of uptake solution by means of a vacuum pump connected to a Pasteur pipette, followed by a rapid wash with Hanks' medium. Subsequently, cells were solubilized in 0.1% vol/vol Triton X-100 (dissolved in 5 mM Tris-HCl, pH 7.4), and radioactivity was measured by liquid scintillation counting.
as §3

ASCT2 mRNA = assay: ASCT2 gene expression (RT-qPCR) after ASCT2 gene silencing in human colon cancer HTC-116 cells; assay type: cell-based; details: treatment 6 h, 72 h, 0.17% Lipofectamine 2000 or 0.1% Injectin, FIG. 20A
Method: as §1, §2
as §3, with “ASCT2” for “LAT1”

LAT1 mRNA [3] = assay: LAT1 gene expression (RT-qPCR) after LAT1 gene silencing in human colon cancer HTC-116 cells; assay type: cell-based; details: treatment 6 h, 72 h, 0.17% Lipofectamine 2000 or 0.1% Injectin, FIG. 19A
Method: as §1, §2, §3

Substance	cell proliferation ([1]; 0.1% Injectin)	LAT1 mRNA relative abundance (LAT1 mRNA [2])	inhibiting sodium-independent [^14C]-L-leucine transport (LAT1)	[^14C]-L-leucine (0.25 μM) uptake at initial rate of uptake (1 min) (LAT1)	proliferation [1]	other results
61/395/396 (chain 1 UGAACUGCUACAGCGUGAATT; chain 2 UUCACUCUGUAGCAGUUCACG; siRNA; chain 1: sugars from the 5' end r19 d2, backbone not given here; chain 2: RNA, backbone not given here)	decreased					
58 (CTTCGCCACCTACCTGCTCAA; chemistry not given here) [compound 58]		decreased	particularly effective	decreased		Effect on LAT1 mRNA relative abundance compared with SEQ ID NO: 34 (LAT1 mRNA [2]; SK-HEP-1 cells, 10 nM, p<0.05): significantly greater; Effect on [^14C]-L-leucine uptake compared with SEQ ID NO: 34 (LAT1; SK-HEP-1 cells, 10 nM, p<0.05): significantly greater; Effect on cell proliferation compared with SEQ ID NO: 34 ([1]; 72 h, 0.1% Injectin, p<0.05): significantly greater
34 (AAGGACATCTTCTCCGTCATC; chemistry not given here) [compound 34]	decreased	decreased	particularly effective	decreased		
278/407/408 (sense CCACGGUCGCCUCUGAGAATT; antisense UUCUCAGAGGCGACCGUGGCA; siRNA; sense: sugars from the 5' end r19 d2, backbone not given here; antisense: RNA, backbone not given here)	decreased					Effect on cell proliferation compared with SEQ ID NO: 278/367/408 ([1]; 72 h, 0.1% Injectin, p<0.05): significantly greater
22 (AACATTGTGCTGGCATTATAC; chemistry not given here) [compound 22]	decreased	decreased	particularly effective	decreased		
61 (CGTGAACTGCTACAGCGTGAA; chemistry not given here) [compound 61]		decreased	particularly effective	decreased		
58/389/412 (sense UCGCCACCUACCUGCUCAATT; antisense UUGAGCAGGUAGGUGGCGAUG; siRNA; sense: sugars from the 5' end r19 d2, backbone not given here; antisense: RNA, backbone not given here)	decreased					Effect on cell proliferation compared with SEQ ID NO: 58 ([1]; 72 h, 0.1% Injectin, p<0.05): significantly greater
267/399/400 (sense GGUCCUGUACCGUCCUCAATT; antisense UUGAGGACGGUACAGGACCTT; siRNA; sugars by position and backbone not given here; further chemistry not fully specified)	decreased				significantly decreased	ASCT2 mRNA relative abundance (ASCT2 mRNA): significantly decreased
267/401/402 (sense GGUCCUGUACCGUCCUCAATT; antisense UUGAGGACGGUACAGGACCGG; siRNA; sense: sugars from the 5' end r19 d2, backbone not given here; antisense: RNA, backbone not given here)	decreased					Effect on cell proliferation compared with SEQ ID NO: 267/356/402 ([1]; 72 h, 0.1% Injectin, p<0.05): significantly greater
6 (AACATCACGCTGCTCAACGGC; chemistry not given here) [compound 6]	decreased	decreased	particularly effective	decreased		
58/389/390 (sense UCGCCACCUACCUGCUCAATT; antisense UUGAGCAGGUAGGUGGCGATT; siRNA; sugars by position and backbone not given here; further chemistry not fully specified)	decreased				significantly decreased	LAT1 mRNA relative abundance (LAT1 mRNA [3]): significantly decreased; Effect on cell proliferation compared with SEQ ID NO: 58 ([1]; 72 h, 0.1% Injectin, p<0.05): significantly greater
61/393/394 (chain 1 UGAACUGCUACAGCGUGAATT; chain 2 UUCACUCUGUAGCAGUUCATT; siRNA; sugars by position and backbone not given here; further chemistry not fully specified)	decreased				significantly decreased	LAT1 mRNA relative abundance (LAT1 mRNA [3]): significantly decreased
278/405/406 (sense CCACGGUCGCCUCUGAGAATT; antisense UUCUCAGAGGCGACCGUGGTT; siRNA; sugars by position and backbone not given here; further chemistry not fully specified)	decreased				significantly decreased	ASCT2 mRNA relative abundance (ASCT2 mRNA): significantly decreased; Effect on cell proliferation compared with SEQ ID NO: 278/367/408 ([1]; 72 h, 0.1% Injectin, p<0.05): significantly greater
